The test system of assay [1] is MT4. Description: Cytotoxicity against human MT4 cells assessed as reduction in cell viability incubated for 4 days by CellTiter-Glo assay. In kind it is cell-based. As to conditions: MT4, 96 h.
Assay [2] concerns Human immunodeficiency virus. Description: Antiviral activity against HIV NL4-3 infected in human MT4 cells assessed as suppression of viral replication by measuring reduction in p24 level measured after 4 days by ELISA method. In kind it is functional, organism-based. As to conditions: Human immunodeficiency virus 1, NL4-3, MT4, 96 h.

pEC50, pIC50: −log10 of the molar value.

With `C=C(C)[C@@]12O[C@@]3(/C=C/C=C/C=C/CCC)O[C@@H]1[C@@H]1[C@@H]4O[C@]4(CO)[C@@H](O)[C@]4(O)C(=O)C(C)=C[C@H]4[C@@]1(O3)[C@H](C)[C@H]2OC(=O)c1ccccc1`, in assay [1], the pIC50 is under 7.47. For the same compound, the negative-log EC50 (pEC50) in assay [2] was 8.72.

For `C=C(C)[C@@]12O[C@@]3(/C=C/C=C/C=C/CCC)O[C@@H]1[C@@H]1[C@@H]4O[C@]4(CO)[C@@H](O)[C@]4(O)C(=O)C(C)=C[C@H]4[C@@]1(O3)[C@H](C)[C@H]2OC(=O)/C=C/c1ccc(O)cc1`, the pIC50 in assay [1] is under 7.47. In addition, in assay [2], the negative-log EC50 (pEC50) was 8.80.

As to `C=C(C)[C@@]12O[C@@]3(/C=C/C=C/C=C/CCC)O[C@@H]1[C@@H]1[C@@H]4O[C@]4(CO)[C@@H](O)[C@]4(O)C(=O)C(C)=C[C@H]4[C@@]1(O3)[C@H](C)[C@H]2OC(=O)/C=C/c1ccc(O)c(OC)c1`, the pIC50 in assay [1] is under 7.47. In assay [2], the pEC50 is 8.35.

As to `C=C(C)[C@]1(O)C[C@@H](C)[C@@]2(O)[C@@H]([C@H]3O[C@@]4([C@H](O)[C@]3(O)COC(=O)c3ccccc3)[C@@H](OC(=O)/C=C/C=C/C=C/CCC)[C@@H](C)C[C@@H]24)[C@H]1O`, the pIC50 in assay [1] was under 7.47. The pEC50 in assay [2] was under 7.47.

`C=C(C)[C@@]1(O)[C@H](OC(=O)/C=C/C=C/C=C/CCC)[C@@H]2[C@@H]3O[C@]3(CO)[C@@H](O)[C@]3(O)C(=O)C(C)=C[C@H]3[C@@]2(O)[C@H](C)[C@H]1OC(=O)/C=C/c1ccc(O)c(OC)c1`: the pIC50 in assay [1] is under 7.47. For the same compound, the pEC50 in assay [2] is under 7.47.

Consider `C=C(C)[C@@]12O[C@@]3(/C=C/C=C/CCCCC)O[C@@H]1[C@@H]1[C@@H]4O[C@]4(CO)[C@@H](O)[C@]4(O)C(=O)C(C)=C[C@H]4[C@@]1(O3)[C@H](C)[C@H]2OC(=O)/C=C/c1ccc(O)c(OC)c1`, for which the pIC50 in assay [1] was under 7.47. Further, the pEC50 in assay [2] is 8.82.

As for `C=C(C)[C@@]1(O)[C@H](OC(=O)/C=C/C=C/CCCCC)[C@@H]2[C@@H]3O[C@]3(CO)[C@@H](O)[C@]3(O)C(=O)C(C)=C[C@H]3[C@@]2(O)[C@H](C)[C@H]1OC(=O)/C=C/c1ccccc1`, the pIC50 in assay [1] is under 7.47. The pEC50 in assay [2] is under 7.47.

Turning to `C=C(C)[C@@]12O[C@@]3(/C=C/C=C/C=C/CCC)O[C@@H]1[C@@H]1[C@@H]4O[C@]4(CO)[C@@H](O)[C@]4(O)C(=O)C(C)=C[C@H]4[C@@]1(O3)[C@H](C)[C@H]2OC(=O)/C=C/c1ccccc1`, the pIC50 in assay [1] is under 7.47. Besides, the negative-log EC50 (pEC50) in assay [2] is 8.43.

`C=C(C)[C@@]12O[C@@]3(/C=C/C=C/CCCCC)O[C@@H]1[C@@H]1[C@@H]4O[C@]4(CO)[C@@H](O)[C@]4(O)C(=O)C(C)=C[C@H]4[C@@]1(O3)[C@H](C)[C@H]2OC(=O)/C=C/c1ccc(O)cc1`: the negative logarithm of the IC50 (pIC50) in assay [1] is under 7.47. The negative-log EC50 (pEC50) in assay [2] is 8.11.

Turning to `C=C(C)[C@@]12O[C@@]3(c4ccccc4)O[C@@H]1[C@@H]1[C@@H]4O[C@]4(CO)[C@@H](O)[C@]4(O)C(=O)C(C)=C[C@H]4[C@@]1(O3)[C@H](C)[C@H]2OC(=O)/C=C/C=C/C=C/CCC`, the pIC50 in assay [1] was under 7.47. Further, in assay [2], the pEC50 is 8.64.

`C=C(C)[C@@]12O[C@@]3(/C=C/C=C/CCCCC)O[C@@H]1[C@@H]1[C@@H]4O[C@]4(CO)[C@@H](O)[C@]4(O)C(=O)C(C)=C[C@H]4[C@@]1(O3)[C@H](C)[C@H]2OC(=O)c1ccccc1` [GNIDILATIDIN]: in assay [1], the pIC50 was under 7.47. For the same compound, in assay [2], the pEC50 is 8.72.

Consider `C=C(C)[C@@]12O[C@@]3(/C=C/C=C/CCCCC)O[C@@H]1[C@@H]1[C@@H]4O[C@]4(CO)[C@@H](O)[C@]4(O)C(=O)C(C)=C[C@H]4[C@@]1(O3)[C@H](C)[C@H]2OC(=O)/C=C/c1ccccc1`, for which the negative logarithm of the IC50 (pIC50) in assay [1] is under 7.47. Further, the negative-log EC50 (pEC50) in assay [2] was 8.66.

The term pIC50 denotes the negative decadic logarithm of the IC50, by convention in mol/L. One may read the pEC50 as the EC50 on a negative log10 scale, so that one unit is a factor of ten.

For the origin of these results see ChEMBL document CHEMBL4699530, “Isolation, Structural Elucidation, and Anti-HIV Activity of Daphnane Diterpenoids from Daphne odora” (J Nat Prod, 2020).
